According to ChEMBL document CHEMBL3045943, “Novel N-aryl(alkaryl)-2-[(3-R-2-oxo-2H-[1,2,4]triazino[2,3-c]quinazoline-6-yl)thio]acetamides: synthesis, cytotoxicity, anticancer activity, COMPARE analysis and docking” (2013):

Experiments:
Format in all cases: functional
[1] = test system: Photobacterium leiognathi; test: Growth inhibition of Photobacterium leiognathi Sh1 assessed as bio-luminescence at 0.1 mg/ml after 16 to 18 hr by chronic action test relative to control; design: scale not given: the % may be the effect or the level left
[2] = test system: Photobacterium leiognathi; test: Growth inhibition of Photobacterium leiognathi Sh1 assessed as bio-luminescence at 0.025 mg/ml after 16 to 18 hr by chronic action test relative to control; design: scale not given: the % may be the effect or the level left
[3] = test system: Photobacterium leiognathi; test: Growth inhibition of Photobacterium leiognathi Sh1 assessed as bio-luminescence at 0.25 mg/ml after 10 min by acute action test relative to control; design: scale not given: the % may be the effect or the level left
[4] = test system: Photobacterium leiognathi; test: Growth inhibition of Photobacterium leiognathi Sh1 assessed as bio-luminescence at 0.1 mg/ml after 10 min by acute action test relative to control; design: scale not given: the % may be the effect or the level left
[5] = test system: Photobacterium leiognathi; test: Growth inhibition of Photobacterium leiognathi Sh1 assessed as bio-luminescence at 0.025 mg/ml after 10 min by acute action test relative to control; design: scale not given: the % may be the effect or the level left
[6] = test system: SF-539; test: Cytotoxicity against Homo sapiens (human) SF539 cells assessed as cell growth at 10 uM after 48 hr by SRB assay relative to control; conditions: SF-539, 48 h, read-out: Activity
[7] = test system: HOP-92; test: Cytotoxicity against Homo sapiens (human) HOP92 cells assessed as cell growth at 10 uM after 48 hr by SRB assay relative to control; conditions: HOP-92, 48 h, read-out: Activity
[8] = test system: SR; test: Cytotoxicity against Homo sapiens (human) SR cells assessed as cell growth at 10 uM after 48 hr by SRB assay relative to control; conditions: read-out: Activity
[9] = test system: Photobacterium leiognathi; test: Growth inhibition of Photobacterium leiognathi Sh1 assessed as bio-luminescence at 0.25 mg/ml after 16 to 18 hr by chronic action test relative to control; design: scale not given: the % may be the effect or the level left
[10] = test system: PC-3; test: Cytotoxicity against Homo sapiens (human) PC3 cells assessed as cell growth at 10 uM after 48 hr by SRB assay relative to control; conditions: PC-3, 48 h, read-out: Activity
[11] = test system: DU-145; test: Cytotoxicity against Homo sapiens (human) DU145 cells assessed as cell growth at 10 uM after 48 hr by SRB assay relative to control; conditions: DU-145, 48 h, read-out: Activity
[12] = test system: 786-0; test: Cytotoxicity against Homo sapiens (human) 786-0 cells assessed as cell growth at 10 uM after 48 hr by SRB assay relative to control; conditions: 786-0, 48 h, read-out: Activity
[13] = test system: MDA-MB-435; test: Cytotoxicity against Homo sapiens (human) MDA-MB-435 cells assessed as cell growth at 10 uM after 48 hr by SRB assay relative to control; conditions: MDA-MB-435, 48 h, read-out: Activity
[14] = test system: LOX IMVI; test: Cytotoxicity against Homo sapiens (human) LOXIMVI cells assessed as cell growth at 10 uM after 48 hr by SRB assay relative to control; conditions: read-out: Activity
[15] = test system: SF-295; test: Cytotoxicity against Homo sapiens (human) SF295 cells assessed as cell growth at 10 uM after 48 hr by SRB assay relative to control; conditions: SF-295, 48 h, read-out: Activity
[16] = test system: SF-268; test: Cytotoxicity against Homo sapiens (human) SF268 cells assessed as cell growth at 10 uM after 48 hr by SRB assay relative to control; conditions: SF-268, 48 h, read-out: Activity
[17] = test system: NCI-H460; test: Cytotoxicity against Homo sapiens (human) NCI-H460 cells assessed as cell growth at 10 uM after 48 hr by SRB assay relative to control; conditions: NCI-H460, 48 h, read-out: Activity
[18] = test system: A549; test: Cytotoxicity against Homo sapiens (human) A549 cells assessed as cell growth at 10 uM after 48 hr by SRB assay relative to control; conditions: A549, 48 h, read-out: Activity
[19] = test system: OVCAR-3; test: Cytotoxicity against Homo sapiens (human) OVCAR3 cells assessed as cell growth at 10 uM after 48 hr by SRB assay relative to control; conditions: OVCAR-3, 48 h, read-out: Activity
[20] = test system: SNB-75; test: Cytotoxicity against Homo sapiens (human) SNB75 cells after 48 hr by SRB assay; conditions: SNB-75, 48 h
[21] = test system: HOP-62; test: Cytotoxicity against Homo sapiens (human) HOP62 cells after 48 hr by SRB assay; conditions: HOP-62, 48 h
[22] = test system: UO-31; test: Cytotoxicity against Homo sapiens (human) UO31 cells after 48 hr by SRB assay; conditions: UO-31, 48 h
[23] = test system: BT-549; test: Cytotoxicity against Homo sapiens (human) BT549 cells after 48 hr by SRB assay; conditions: BT-549, 48 h
[24] = test system: A498; test: Cytotoxicity against Homo sapiens (human) A498 cells after 48 hr by SRB assay; conditions: A498, 48 h
[25] = test system: SW-620; test: Cytotoxicity against Homo sapiens (human) SW620 cells assessed as cell growth at 10 uM after 48 hr by SRB assay relative to control; conditions: SW-620, 48 h, read-out: Activity
[26] = test system: KM12; test: Cytotoxicity against Homo sapiens (human) KM12 cells assessed as cell growth at 10 uM after 48 hr by SRB assay relative to control; conditions: KM12, 48 h, read-out: Activity
[27] = test system: HCT-116; test: Cytotoxicity against Homo sapiens (human) HCT116 cells assessed as cell growth at 10 uM after 48 hr by SRB assay relative to control; conditions: HCT-116, 48 h, read-out: Activity
[28] = test system: MOLT-4; test: Cytotoxicity against Homo sapiens (human) MOLT4 cells assessed as cell growth at 10 uM after 48 hr by SRB assay relative to control; conditions: MOLT-4, 48 h, read-out: Activity
[29] = test system: K562; test: Cytotoxicity against Homo sapiens (human) K562 cells assessed as cell growth at 10 uM after 48 hr by SRB assay relative to control; conditions: K562, 48 h, read-out: Activity
[30] = test system: HL-60(TB); test: Cytotoxicity against Homo sapiens (human) HL-60(TB) cells assessed as cell growth at 10 uM after 48 hr by SRB assay relative to control; conditions: HL-60, 48 h, read-out: Activity
[31] = Cytotoxicity against Homo sapiens (human) […] cells assessed as cell growth at 10 uM after 48 hr by SRB assay relative to control; conditions: read-out: Activity
[32] = test system: U-251; test: Cytotoxicity against Homo sapiens (human) U251 cells assessed as cell growth at 10 uM after 48 hr by SRB assay relative to control; conditions: U-251, 48 h, read-out: Activity
[33] = test system: CCRF-CEM; test: Cytotoxicity against Homo sapiens (human) CCRF-CEM cells assessed as cell growth at 10 uM after 48 hr by SRB assay relative to control; conditions: read-out: Activity
[34] = test system: HT-29; test: Cytotoxicity against Homo sapiens (human) HT-29 cells assessed as cell growth at 10 uM after 48 hr by SRB assay relative to control; conditions: HT-29, 48 h, read-out: Activity
[35] = test system: HCT-15; test: Cytotoxicity against Homo sapiens (human) HCT15 cells assessed as cell growth at 10 uM after 48 hr by SRB assay relative to control; conditions: HCT-15, 48 h, read-out: Activity
[36] = test system: SNB-75; test: Cytotoxicity against Homo sapiens (human) SNB75 cells assessed as cell growth at 10 uM after 48 hr by SRB assay relative to control; conditions: SNB-75, 48 h, read-out: Activity
[37] = test system: NCI-H522; test: Cytotoxicity against Homo sapiens (human) NCI-H522 cells assessed as cell growth at 10 uM after 48 hr by SRB assay relative to control; conditions: NCI-H522, 48 h, read-out: Activity

Cc1ccc(-c2nn3c(SCC(=O)Nc4cccc(C(F)(F)F)c4)nc4ccccc4c3nc2=O)cc1
Activity [1]: 81.5%
Activity [2]: 118.2%
Activity [3]: 83.3%
Activity [4]: 78.8%
Activity [5]: 61.1%
growth at 10 µM [6]: 80.8%
growth at 10 µM [7]: 71%
growth at 10 µM [8]: 66.5%
Activity [9]: 200%

O=C(CSc1nc2ccccc2c2nc(=O)c(-c3ccccc3)nn12)NCc1ccccc1
growth at 10 µM [10]: 18.1%
growth at 10 µM [11]: 21.8%
growth at 10 µM [12]: -7.56%
growth at 10 µM [13]: 21.7%
growth at 10 µM [14]: 29.5%
growth at 10 µM [15]: 55.7%
growth at 10 µM [16]: 53.1%
growth at 10 µM [17]: 1.57%
growth at 10 µM [18]: 12.8%
Activity [1]: 113.6%
Activity [2]: 84.9%
Activity [3]: 100%
Activity [4]: 112.5%
Activity [5]: 125%
growth at 10 µM [19]: 13.7%
GI50 [20]: 2.19 µM
LC50 [20]: 43.7 µM
TGI ([20]; read-out: pTGI (converted)): 13.5 µM
GI50 [21]: 2.75 µM
LC50 [21]: 30.2 µM
TGI ([21]; read-out: pTGI (converted)): 7.08 µM
GI50 [22]: 2.57 µM
LC50 [22]: > 100 µM
TGI ([22]; read-out: pTGI): > 100 µM
GI50 [23]: 3.02 µM
LC50 [23]: > 100 µM
TGI ([23]; read-out: pTGI (converted)): 7.76 µM
GI50 [24]: 0.0269 µM
LC50 [24]: > 100 µM
TGI ([24]; read-out: pTGI (converted)): 37.2 µM
growth at 10 µM [25]: 19.4%
growth at 10 µM [26]: 12%
growth at 10 µM [27]: 48.6%
growth at 10 µM [28]: 43%
growth at 10 µM [29]: 29.7%
growth at 10 µM [30]: 51.6%
growth at 10 µM [7]: 24.6%
growth at 10 µM [8]: 41.9%
growth at 10 µM [31]: 44.5%
growth at 10 µM [32]: 30.1%
growth at 10 µM [33]: 37.9%
Activity [9]: 78.2%

Cc1ccc(-c2nn3c(SCC(=O)Nc4ccccc4F)nc4ccccc4c3nc2=O)cc1
Activity [1]: 87.5%
Activity [2]: 112.5%
Activity [3]: 47.83%
Activity [4]: 86.96%
Activity [5]: 89.86%
growth at 10 µM [28]: 82.3%
growth at 10 µM [29]: 77.5%
growth at 10 µM [30]: 84.4%
growth at 10 µM [8]: 73.7%
growth at 10 µM [31]: 94.4%
growth at 10 µM [33]: 76.8%
Activity [9]: 100%

COc1ccc(-c2nn3c(SCC(=O)Nc4ccccc4F)nc4ccccc4c3nc2=O)cc1
Activity [1]: 96.67%
Activity [2]: 100%
Activity [3]: 40%
Activity [4]: 84%
Activity [5]: 90%
growth at 10 µM [25]: 65.6%
growth at 10 µM [26]: 51.3%
growth at 10 µM [34]: 67.8%
growth at 10 µM [35]: 92.2%
growth at 10 µM [27]: 56.7%
growth at 10 µM [28]: 52.7%
growth at 10 µM [29]: 60.2%
growth at 10 µM [30]: 67.9%
growth at 10 µM [8]: 48.2%
growth at 10 µM [31]: 67.6%
growth at 10 µM [33]: 67.5%
Activity [9]: 100%

Cc1ccc(-c2nn3c(SCC(=O)Nc4ccccc4C)nc4ccccc4c3nc2=O)cc1
Activity [1]: 66.7%
Activity [2]: 100%
Activity [3]: 193.5%
Activity [4]: 109.7%
Activity [5]: 119.7%
growth at 10 µM [32]: 63.5%
growth at 10 µM [36]: 46.7%
growth at 10 µM [33]: -49.6%
Activity [9]: 93.3%

O=C(CSc1nc2ccccc2c2nc(=O)c(-c3ccccc3)nn12)NCc1ccccc1Cl
growth at 10 µM [14]: 27.9%
Activity [1]: 133.3%
Activity [2]: 93%
Activity [3]: 155%
Activity [4]: 80%
Activity [5]: 108.3%
growth at 10 µM [19]: 47.9%
growth at 10 µM [27]: 7.01%
growth at 10 µM [6]: 9.93%
growth at 10 µM [7]: 44.8%
growth at 10 µM [8]: 47.4%
growth at 10 µM [37]: 43.2%
Activity [9]: 110%

COc1ccc(-c2nn3c(SCC(=O)Nc4ccccc4C(F)(F)F)nc4ccccc4c3nc2=O)cc1
Activity [1]: 200%
Activity [2]: 185.2%
Activity [3]: 113.4%
Activity [4]: 106.5%
Activity [5]: 97.8%
growth at 10 µM [31]: 85.1%
Activity [9]: 102.9%

Cc1nn2c(SCC(=O)NCc3ccccc3Cl)nc3ccccc3c2nc1=O
growth at 10 µM [13]: 79.8%
Activity [1]: 180.9%
Activity [2]: 148.9%
Activity [3]: 142.9%
Activity [4]: 110%
Activity [5]: 91.7%
growth at 10 µM [37]: 79.9%
Activity [9]: 125%
